Results from publication PMC12884772, “Macrophagic Sclerostin Loop2‐ApoER2 Interaction Required by Sclerostin for Cardiovascular Protective Action” (Advanced Science, 2025).

What was measured:
[1] = test system: human differentiated macrophages (THP‐1); assay: LPS‐induced inflammatory responses in human differentiated macrophages (THP‐1), siNC or siLrp8; type: cell-based
Experimental: To determine whether the suppressive effects of sclerostin on inflammatory responses in macrophages were dependent on ApoER2 in vitro, PMA (100 ng/mL, 48 h)‐induced human differentiated macrophages (THP‐1 cells, Procell Life Science & Technology, CL‐0233) and mouse macrophages (RAW 264.7 cells, ATCC, TIB‐71) were utilized. Human differentiated macrophages or mouse macrophages were divided into 9 groups (n = 3 per group), respectively, including (1) siNC, (2) siNC + LPS, (3) siNC + LPS + SOST 500 nM or 250 nM, (4) siNC + LPS + SOST 1 µM or 500 nM, (5) siNC + LPS + SOST 2 µM or 1 µM, (6) siLrp8 + LPS + SOST 500 nM or 250 nM, (7) siLrp8 + LPS + SOST 1µM or 500 nM, (8) siLrp8 + LPS + SOST 2 µM or 1 µM, (9) siLrp8 + LPS. Cells in groups (6‐9) were transfected with siRNA targeting human/mouse Lrp8 (human siLrp8: Santa Cruz Biotechnology sc‐40097, mouse siLrp8: Santa Cruz Biotechnology sc‐40098), while cells in groups (1‐5) were transfected with empty vector as control (siNC). 24 h later, cells in group (3)/(6), (4)/(7), and (5)/(8) were treated with recombinant human or mouse sclerostin for 3 h at concentration of 500 nM or 250 nM, 1 µM or 500 nM, as well as 2 µM or 1 µM, respectively, while cells in groups (1), (2), and (9) were treated with vehicle. Then, cells in groups (2‐9) were treated with LPS (100 ng/mL or 1 µg/mL) for 18 h. All groups of cell lysates were collected for determining the mRNA expression levels of TNF‐α, MCP‐1, and IL‐10 (human or mouse, respectively) by RT‐PCR.^[ [34] ^] Cell mediums were collected for determining the protein expression/secretion levels of TNF‐α, MCP‐1, and IL‐10 (human or mouse, respectively) by ELISA.^[ [34] ^]
Total RNA was extracted from cells following the protocols of Trizol reagent (Invitrogen, 15 596 026). […] The relative gene expression levels were calculated using the 2^−ΔΔCt method with GAPDH as the reference gene.^[ [40] ^] […]

ApoER2 = target: T1, ApoER2 (Mus musculus, UniProt Q924X6); assay: Confocal microscopy of cell surface binding of sclerostin to ApoER2; type: cell-based; details: GFP‐ApoER2 overexpressed RAW 264.7, sclerostin 1 µM for 12 h; Figure 6C
T1 construct: FLAG; expressed in transfected cells; host or cells: RAW264.7
T1 sequence (Q924X6 29-996): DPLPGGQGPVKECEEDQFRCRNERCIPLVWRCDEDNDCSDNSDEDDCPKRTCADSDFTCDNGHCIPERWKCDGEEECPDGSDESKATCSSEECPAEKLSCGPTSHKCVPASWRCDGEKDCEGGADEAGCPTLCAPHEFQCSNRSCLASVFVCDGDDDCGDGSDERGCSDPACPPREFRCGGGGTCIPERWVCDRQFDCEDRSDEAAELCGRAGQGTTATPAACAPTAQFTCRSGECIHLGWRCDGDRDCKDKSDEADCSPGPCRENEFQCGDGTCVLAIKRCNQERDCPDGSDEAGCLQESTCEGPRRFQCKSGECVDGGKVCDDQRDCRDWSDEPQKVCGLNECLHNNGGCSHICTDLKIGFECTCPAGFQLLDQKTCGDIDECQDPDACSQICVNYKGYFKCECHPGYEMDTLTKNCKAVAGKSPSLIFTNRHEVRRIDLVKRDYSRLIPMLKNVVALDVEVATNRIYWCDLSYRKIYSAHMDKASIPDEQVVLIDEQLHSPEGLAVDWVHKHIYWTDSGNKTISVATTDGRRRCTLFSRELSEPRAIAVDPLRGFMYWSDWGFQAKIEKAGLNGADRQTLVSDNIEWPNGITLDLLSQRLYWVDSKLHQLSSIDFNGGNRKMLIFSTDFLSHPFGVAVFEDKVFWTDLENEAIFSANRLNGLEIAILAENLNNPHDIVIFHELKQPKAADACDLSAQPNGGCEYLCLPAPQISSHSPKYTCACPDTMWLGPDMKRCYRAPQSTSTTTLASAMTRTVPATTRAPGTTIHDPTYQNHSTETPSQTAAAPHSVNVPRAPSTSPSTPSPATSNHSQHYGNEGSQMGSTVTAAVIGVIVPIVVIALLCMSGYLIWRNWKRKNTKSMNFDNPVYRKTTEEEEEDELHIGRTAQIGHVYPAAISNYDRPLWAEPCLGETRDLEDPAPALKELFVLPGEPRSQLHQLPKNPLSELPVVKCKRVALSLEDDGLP
Experimental: The interaction of full‐length (FL)/truncated ApoER2 with full‐length (FL) /truncated sclerostin in macrophages (RAW264.7) were determined by pull‐down assay and Co‐IP assay. The binding affinity of ApoER2 to FL sclerostin and sclerostin loop2 were determined by biolayer interferometry (BLI) analysis. Moreover, the binding of sclerostin to ApoER2 on macrophages (RAW264.7) was examined by confocal microscopy.
GFP‐ApoER2 overexpressed RAW 264.7 cells and GFP‐vector overexpressed RAW 264.7 cells were plated in laser confocal dishes (80 000 cells per well) 12 h before the experiment. The recombinant sclerostin was added to make its final concentration 1 µM for 12 h. Cells were washed three times with PBS and then fixed with 4% paraformaldehyde (PFA) in PBS for 15 min, washed three times, blocked in 10% goat serum for 1 h at room temperature and incubated with anti‐sclerostin primary antibody (Thermo, PA5‐113315, 1:100) overnight at 4 °C. Thereafter, cells were washed with PBS three times, then incubated with goat anti‐rabbit IgG H&L (Alexa Fluor 594, 1:200) for 2 h at 37 °C. Hoechst was used to stain the cell nuclei. The fluorescent images were obtained by a confocal microscope (Leica, STELLARIS STED) equipped with a 405 nm laser, a 488 nm laser, and a 594 nm laser.^[ [67] ^]

[2] = THP‐1, LPS 100 ng/mL 18 h, recombinant human sclerostin 500 nM-2 µM for 3 h, RT‐PCR and ELISA, n = 3

Cell surface binding of sclerostin to ApoER2 (ApoER2): observed
Substance: sclerostin: recombinant human/mouse full‐length sclerostin protein
mRNA expression and protein expression/secretion of IL‐10 [1, 2]: promoted
mRNA expression and protein expression/secretion of TNF‐α and MCP‐1 [1, 2]: inhibited
Effects of sclerostin on cytokine/chemokine expression/secretion upon Lrp8 silencing ([1]; THP‐1 with siLrp8, LPS 100 ng/mL 18 h): not detected
